According to ChEMBL document CHEMBL5543154, “Structural Elucidation and Antiviral Activity of Covalent Cathepsin L Inhibitors” (J Med Chem, 2024):

Columns and labels:
[1] = Cytotoxicity against african green monkey Vero 76 cells assessed as reduction in cell viability incubated for 48 hrs by neutral red uptake assay; assay type: toxicity, cell-based; conditions: chlorocebus sabaeus
SARS-CoV-2 [2] = assay type: functional, Severe acute respiratory syndrome coronavirus 2, Omicron, Vero; conditions: dose 100 nM; time 24 hrs
SARS-CoV-2 [3] = assay: Antiviral activity against SARS CoV-2 USA-WA1/2020 infected in african green monkey Vero 76 cells assessed as virus-induced cytopathic effect incubated for 5 days by neutral red uptake assay; assay type: functional, organism-based; conditions: Severe acute respiratory syndrome coronavirus 2, USA-WA1/2020, Vero 76, 120 h
[4] = target: Procathepsin L (Homo sapiens) (UniProt P07711); assay: Binding affinity to Cathepsin L (unknown origin) expressed in Komagataella pastoris GS115 assessed as thermal stabilization by mesuring melting temperature by nanoDSF analysis
Procathepsin L (Homo sapiens), sequence (P07711 114-333 limits assumed): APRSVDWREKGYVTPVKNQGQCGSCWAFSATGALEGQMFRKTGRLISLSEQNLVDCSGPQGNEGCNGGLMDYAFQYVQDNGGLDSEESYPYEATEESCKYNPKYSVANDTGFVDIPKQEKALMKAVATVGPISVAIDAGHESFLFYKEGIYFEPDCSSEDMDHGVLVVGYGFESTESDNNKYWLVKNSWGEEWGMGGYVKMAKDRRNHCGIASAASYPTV

Compound: CCCC(NC(=O)C(CC(C)C)NC(=O)OCc1ccccc1)C(=O)C(=O)NCc1ccccn1 (centres undefined)
- CC50 at 48 h [1]: > 50 µM
- Activity (SARS-CoV-2 [2]): 50%
- EC50 (SARS-CoV-2 [3]): < 1 µM

Compound: CN(C)C(=O)C(Cc1ccccc1)NC(=O)[C@H]1O[C@@H]1C(=O)NCCc1ccccn1 (relative stereo)
- ΔTm [4]: 12 °C
